Test results: PubChem BioAssay AID248 (DTP/NCI, 2004)
Values joined by “and” are separate entries in the source; they are usually repeats but may differ in a detail not shown here. Equal entries are not always repeated. Inconclusive results and toxic doses are left out.

Tested on: L1210 leukemia ip in BDF1 mice, survival T/C
Experiment: NCI In Vivo Anticancer Drug Screen. Data for tumor model L1210 Leukemia (intraperitoneal) in B6D2F1 (BDF1) mice
Settings: endpoint: mean survival time, higher = longer survival
In short: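 Each compound was tested against a transplantable tumor grown in mice. The endpoint was survival, with treated animals benchmarked against vehicle controls as a simple ratio.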

[1] = dose: 50.0 mg/kg/injection, schedule: Q01DX009 (ip), vehicle: saline with Tween-80
[2] = dose: 100.0 mg/kg/injection, schedule: Q01DX009 (ip), vehicle: saline with Tween-80
[3] = dose: 200.0 mg/kg/injection, schedule: Q01DX009 (ip), vehicle: saline with Tween-80
[4] = dose: 100.0 mg/kg/injection, schedule: Q01DX009 (ip), vehicle: Klucel (hydroxypropylcellulose) (HPC)
[5] = dose: 100.0 mg/kg/injection, schedule: Q04DX003 (ip), vehicle: Klucel (hydroxypropylcellulose) (HPC)
[6] = dose: 200.0 mg/kg/injection, schedule: Q01DX009 (ip), vehicle: Klucel (hydroxypropylcellulose) (HPC)
[7] = dose: 200.0 mg/kg/injection, schedule: Q04DX003 (ip), vehicle: Klucel (hydroxypropylcellulose) (HPC)
[8] = dose: 400.0 mg/kg/injection, schedule: Q01DX009 (ip), vehicle: Klucel (hydroxypropylcellulose) (HPC)
[9] = dose: 400.0 mg/kg/injection, schedule: Q04DX003 (ip), vehicle: Klucel (hydroxypropylcellulose) (HPC)
[10] = dose: 400.0 mg/kg/injection, schedule: Q01DX009 (ip), vehicle: saline with Tween-80
[11] = dose: 100.0 mg/kg/injection, schedule: Q01DX001 (ip), vehicle: saline with Tween-80
[12] = dose: 200.0 mg/kg/injection, schedule: Q01DX001 (ip), vehicle: saline with Tween-80
[13] = dose: 400.0 mg/kg/injection, schedule: Q01DX001 (ip), vehicle: saline with Tween-80
[14] = dose: 25.0 mg/kg/injection, schedule: Q04DX002 (ip), vehicle: saline with Tween-80
[15] = dose: 50.0 mg/kg/injection, schedule: Q04DX002 (ip), vehicle: saline with Tween-80
[16] = dose: 100.0 mg/kg/injection, schedule: Q04DX002 (ip), vehicle: saline with Tween-80
[17] = dose: 10.0 mg/kg/injection, schedule: Q01DX001 (ip), vehicle: saline
[18] = dose: 100.0 mg/kg/injection, schedule: Q04DX003 (ip), vehicle: saline with Tween-80
[19] = dose: 200.0 mg/kg/injection, schedule: Q04DX003 (ip), vehicle: saline with Tween-80
[20] = dose: 400.0 mg/kg/injection, schedule: Q04DX003 (ip), vehicle: saline with Tween-80

SMILES: CCCCOC(OCCCC)c1ccccc1
- T/C (dose: 50.0 mg/kg/injection, schedule: Q01DX001 (ip), vehicle: carboxymethylcellulose (CMC)): 95 % of control
- T/C (dose: 100.0 mg/kg/injection, schedule: Q01DX001 (ip), vehicle: carboxymethylcellulose (CMC)): 88 % of control

SMILES: CC(C)C#C/C=C/C(C)C
- T/C [1]: 95 % of control
- T/C [2]: 95 % of control
- T/C [3]: 103 % of control

SMILES: CCOC(=O)C(C#N)(CC)C1=CCCCC1 (configuration not stated)
- T/C [4]: 106 % of control
- T/C [5]: 97 % of control
- T/C [6]: 93 % of control
- T/C [7]: 97 % of control
- T/C [8]: 97 % of control
- T/C [9]: 102 % of control

SMILES: O=C1OC2CCCCC2c2ccccc21 (configuration not stated)
- T/C [2]: 98 % of control
- T/C [3]: 103 % of control
- T/C [10]: 103 % of control

SMILES: CCCCCCCCCCCCC1C2CCCCC2CC2CCCCC21 (configuration not stated)
- T/C [11]: 94 % of control
- T/C [12]: 94 % of control
- T/C [13]: 96 % of control

SMILES: CCC(C)Nc1ccc(NS(=O)(=O)CCl)cc1 (configuration not stated)
- T/C [14]: 97 % of control
- T/C [15]: 106 % of control
- T/C [16]: 100 % of control

SMILES: CCOC(CCl)(OCC)OCC
- T/C [16]: 97 % of control
- T/C (dose: 200.0 mg/kg/injection, schedule: Q04DX002 (ip), vehicle: saline with Tween-80): 90 % of control

SMILES: CC(C)N=C(NC(C)C)c1ccc(NC(=O)c2ccc(C(=O)Nc3ccc(C(=NC(C)C)NC(C)C)cc3)cc2)cc1
- T/C (dose: 15.5 mg/kg/injection, schedule: Q01DX Z (ip), vehicle: methylcellulose (MC)): 103 % of control

SMILES: Cc1ccc(S(=O)(=O)N2CCC(C(=O)O)(c3ccccc3)CC2)cc1
- T/C [2]: 117 % of control
- T/C [3]: 101 % of control
- T/C [10]: 95 % of control

SMILES: CCN(CC)Cc1cc(Nc2cc(OC)cc3cccnc23)ccc1O
- T/C [17]: 111 % of control
- T/C (dose: 19.0 mg/kg/injection, schedule: Q01DX001 (ip), vehicle: saline): 110 % of control
- T/C (dose: 38.0 mg/kg/injection, schedule: Q01DX001 (ip), vehicle: saline): 100 % of control

SMILES: O=C(c1ccccc1)N1C(c2ccccc2)C1(c1ccccc1)C1(c2ccccc2)SCCCS1 (configuration not stated)
- T/C [4]: 94 % of control
- T/C [5]: 108 % of control
- T/C [6]: 101 % of control
- T/C [7]: 100 % of control
- T/C [8]: 91 % of control
- T/C [9]: 97 % of control

SMILES: CC/C=C(\CC(=O)OCC)C(=O)OCC
- T/C [2]: 101 % of control
- T/C [3]: 96 % of control
- T/C [10]: 92 % of control

SMILES: C[N+]1(C)C2CCC1CC(=NO)C2
- T/C (dose: 75.0 mg/kg/injection, schedule: Q01DX001 (ip), vehicle: saline): 104 % of control

SMILES: COC(=O)CCC(C(=O)CN1C(=O)c2ccccc2C1=O)N1C(=O)c2ccccc2C1=O (configuration not stated)
- T/C [18]: 96 % of control
- T/C [19]: 92 % of control
- T/C [20]: 92 % of control

SMILES: N=C1N=C(N)CS1
- T/C (dose: 100.0 mg/kg/injection, schedule: Q01DX001 (ip), vehicle: saline): 95 % of control
- T/C (dose: 200.0 mg/kg/injection, schedule: Q01DX001 (ip), vehicle: saline): 104 % of control
- T/C (dose: 400.0 mg/kg/injection, schedule: Q01DX001 (ip), vehicle: saline): 101 % of control

SMILES: CSc1ccccc1C=O
- T/C [4]: 114 % of control
- T/C [5]: 94 % of control
- T/C [6]: 105 % of control
- T/C [7]: 95 % of control
- T/C [8]: 106 % of control
- T/C [9]: 95 % of control

SMILES: O=Cc1cc([N+](=O)[O-])ccc1Cl
- T/C [1]: 101 % of control
- T/C [2]: 100 % of control
- T/C [18]: 96 % of control
- T/C [3]: 95 % of control
- T/C [19]: 97 % of control

SMILES: O=C(O)CCCCCN1C(=O)c2cccnc2C1=O
- T/C (dose: 75.0 mg/kg/injection, schedule: Q04DX003 (ip), vehicle: carboxymethylcellulose (CMC)): 103 % of control
- T/C (dose: 150.0 mg/kg/injection, schedule: Q04DX003 (ip), vehicle: carboxymethylcellulose (CMC)): 97 % of control
- T/C (dose: 300.0 mg/kg/injection, schedule: Q04DX003 (ip), vehicle: carboxymethylcellulose (CMC)): 98 % of control

SMILES: CCOC(=O)CC1C(=O)CCCC1=O
- T/C [11]: 98 % of control
- T/C [12]: 104 % of control
- T/C [13]: 95 % of control

SMILES: Clc1cc(N2CC2)nc(N2CC2)n1
- T/C (dose: 1.56 mg/kg/injection, schedule: Q01DX001 (ip), vehicle: saline): 92 % of control
- T/C (dose: 1.56 mg/kg/injection, schedule: Q04DX003 (ip), vehicle: saline): 110 % of control
- T/C (dose: 1.6 mg/kg/injection, schedule: Q01DX009 (ip), vehicle: carboxymethylcellulose (CMC)): 118 % of control
- T/C (dose: 2.14 mg/kg/injection, schedule: Q01DX009 (ip), vehicle: saline): 166 % of control and 184 % of control
- T/C (dose: 2.5 mg/kg/injection, schedule: Q01DX001 (ip), vehicle: carboxymethylcellulose (CMC)): 111 % of control
- T/C (dose: 2.7 mg/kg/injection, schedule: Q01DX009 (ip), vehicle: carboxymethylcellulose (CMC)): 120 % of control
- T/C (dose: 3.12 mg/kg/injection, schedule: Q01DX001 (ip), vehicle: saline): 93 % of control
- T/C (dose: 3.25 mg/kg/injection, schedule: Q01DX009 (ip), vehicle: saline with Tween-80): 185 % of control
- T/C (dose: 3.25 mg/kg/injection, schedule: Q01DX009 (ip), vehicle: saline): 177 % of control and 226 % of control
- T/C (dose: 4.12 mg/kg/injection, schedule: Q04DX003 (ip), vehicle: saline): 156 % of control
- T/C (dose: 4.44 mg/kg/injection, schedule: Q01DX001 (ip), vehicle: carboxymethylcellulose (CMC)): 115 % of control
- T/C (dose: 4.87 mg/kg/injection, schedule: Q01DX009 (ip), vehicle: saline): 103 % of control
- T/C (dose: 5.0 mg/kg/injection, schedule: Q01DX001 (ip), vehicle: carboxymethylcellulose (CMC)): 120 % of control
- T/C (dose: 5.0 mg/kg/injection, schedule: Q01DX001 (ip), vehicle: saline): 118 % of control
- T/C (dose: 6.25 mg/kg/injection, schedule: Q01DX001 (ip), vehicle: saline): 98 % of control
- T/C (dose: 6.25 mg/kg/injection, schedule: Q04DX003 (ip), vehicle: saline): 166 % of control and 173 % of control and 202 % of control
- T/C (dose: 6.67 mg/kg/injection, schedule: Q01DX001 (ip), vehicle: carboxymethylcellulose (CMC)): 121 % of control
- T/C (dose: 7.5 mg/kg/injection, schedule: Q01DX009 (ip), vehicle: carboxymethylcellulose (CMC)): 106 % of control
- T/C (dose: 10.0 mg/kg/injection, schedule: Q01DX001 (ip), vehicle: carboxymethylcellulose (CMC)): 154 % of control
- T/C [17]: 156 % of control and 160 % of control
- T/C (dose: 15.0 mg/kg/injection, schedule: Q01DX001 (ip), vehicle: saline): 160 % of control
- T/C (dose: 20.0 mg/kg/injection, schedule: Q01DX001 (ip), vehicle: carboxymethylcellulose (CMC)): 104 % of control

SMILES: O=[N+]([O-])c1cc(Cl)cc2c1nc(Cl)c1ccccc12
- T/C [4]: 94 % of control
- T/C [5]: 100 % of control
- T/C [6]: 91 % of control
- T/C [7]: 98 % of control
- T/C [8]: 91 % of control
- T/C [9]: 100 % of control

SMILES: O=S1(=O)CC(S(=O)(=O)O)C(S(=O)(=O)O)C1 (configuration not stated)
- T/C (dose: 50.0 mg/kg/injection, schedule: Q01DX009 (ip), vehicle: saline): 110 % of control
- T/C (dose: 100.0 mg/kg/injection, schedule: Q01DX009 (ip), vehicle: saline): 103 % of control
- T/C (dose: 200.0 mg/kg/injection, schedule: Q01DX009 (ip), vehicle: saline): 99 % of control
- T/C (dose: 400.0 mg/kg/injection, schedule: Q01DX009 (ip), vehicle: saline): 93 % of control

SMILES: CCCCCCCCC(Br)C(Br)CCCCCCCC(=O)O (configuration not stated)
- T/C [14]: 93 % of control
- T/C [15]: 96 % of control

SMILES: COc1ccc(Cl)cc1N
- T/C [4]: 86 % of control
- T/C [2]: 100 % of control
- T/C [5]: 93 % of control
- T/C [3]: 94 % of control
- T/C [7]: 92 % of control
- T/C [10]: 104 % of control

SMILES: CCCCCCCCCCCCCC(=O)CC
- T/C (dose: 90.0 mg/kg/injection, schedule: Q01DX009 (ip), vehicle: saline with Tween-80): 98 % of control
- T/C [2]: 92 % of control and 96 % of control
- T/C [18]: 96 % of control
- T/C (dose: 135.0 mg/kg/injection, schedule: Q01DX009 (ip), vehicle: saline with Tween-80): 87 % of control
- T/C [3]: 87 % of control and 88 % of control
- T/C [19]: 96 % of control
- T/C (dose: 300.0 mg/kg/injection, schedule: Q01DX009 (ip), vehicle: saline with Tween-80): 92 % of control
- T/C [10]: 97 % of control and 105 % of control
- T/C [20]: 102 % of control

SMILES: Cn1cnc([N+](=O)[O-])c1SC#N
- T/C (dose: 15.0 mg/kg/injection, schedule: Q01DX001 (ip), vehicle: carboxymethylcellulose (CMC)): 100 % of control
